Measured values: PMC8125337 (International Journal of Molecular Sciences, 2021)

Molecular target: T1, TRPV1 (vanilloid receptor)
T1 construct: native receptor in hemocytes
Assay: radioligand saturation binding, rapid filtration
Assay type: cell-based, Mytilus galloprovincialis

With `C=C(C)[C@]12C[C@@H](C)[C@@]34O[C@](Cc5ccccc5)(O[C@@H]1[C@@H]3C=C(COC(=O)Cc1ccc(O)c(OC)c1)C[C@]1(O)C(=O)C(C)=C[C@@H]41)O2` [resiniferatoxin] the Kd was 413 ± 168 pM.
